Values of other authors in publication PMC5152921, “Evolutionary and Functional Diversification of the Vitamin D Receptor-Lithocholic Acid Partnership” (PLoS ONE, 2016).

System: all eight VDRs tested
Set-up: method as in PMID 25279795, PMID 25855982
Details: transient transactivation assays; cited from earlier work

In the case of `C=C1/C(=C\C=C2/CCC[C@]3(C)[C@@H]([C@H](C)CCCC(C)(C)O)CC[C@@H]23)C[C@@H](O)C[C@@H]1O` [1,25D3, 1α,25-dihydroxyvitamin D3], the VDR transactivation is given as “activates all eight VDRs tested”.
